PubChem BioAssay AID248 (DTP/NCI, 2004)
Several values for one entry are separate records, joined by “and”; a condition that tells them apart may be missing. Identical values can stand only once. Inconclusive results and toxic doses are left out. Rule as the data show it: active = T/C of 150% or more; inactive = T/C below 125%.

Tested on: L1210 leukemia ip in BDF1 mice, survival T/C
Assay: NCI In Vivo Anticancer Drug Screen. Data for tumor model L1210 Leukemia (intraperitoneal) in B6D2F1 (BDF1) mice
Details: endpoint: mean survival time, higher = longer survival
Outline: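 Mice bearing the transplanted tumor received compound or vehicle. Survival of the treated group was divided by that of the vehicle-treated control group to give the ratio.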

[1] = dose: 100.0 mg/kg/injection, schedule: Q04DX003 (ip), vehicle: saline with Tween-80
[2] = dose: 200.0 mg/kg/injection, schedule: Q04DX003 (ip), vehicle: saline with Tween-80
[3] = dose: 400.0 mg/kg/injection, schedule: Q04DX003 (ip), vehicle: saline with Tween-80
[4] = dose: 100.0 mg/kg/injection, schedule: Q04DX003 (ip), vehicle: Klucel (hydroxypropylcellulose) (HPC)
[5] = dose: 50.0 mg/kg/injection, schedule: Q01DX009 (ip), vehicle: Klucel (hydroxypropylcellulose) (HPC)
[6] = dose: 100.0 mg/kg/injection, schedule: Q01DX009 (ip), vehicle: Klucel (hydroxypropylcellulose) (HPC)
[7] = dose: 200.0 mg/kg/injection, schedule: Q01DX009 (ip), vehicle: Klucel (hydroxypropylcellulose) (HPC)
[8] = dose: 25.0 mg/kg/injection, schedule: Q01DX009 (ip), vehicle: saline
[9] = dose: 100.0 mg/kg/injection, schedule: Q04DX003 (ip), vehicle: saline
[10] = dose: 100.0 mg/kg/injection, schedule: Q01DX009 (ip), vehicle: saline with Tween-80
[11] = dose: 200.0 mg/kg/injection, schedule: Q01DX009 (ip), vehicle: saline with Tween-80
[12] = dose: 400.0 mg/kg/injection, schedule: Q01DX009 (ip), vehicle: saline with Tween-80
[13] = dose: 400.0 mg/kg/injection, schedule: Q01DX009 (ip), vehicle: Klucel (hydroxypropylcellulose) (HPC)
[14] = dose: 50.0 mg/kg/injection, schedule: Q01DX009 (ip), vehicle: saline with Tween-80
[15] = dose: 200.0 mg/kg/injection, schedule: Q04DX003 (ip), vehicle: saline
[16] = dose: 400.0 mg/kg/injection, schedule: Q04DX003 (ip), vehicle: saline

Measured: T/C

COC(OC)c1[nH]c(=S)[nH]c(=O)c1Cc1c(Cl)cccc1Cl
inactive: [1] 101 % of control | [2] 103 % of control | [3] 94 % of control

COc1cccc(NC(=S)NC2CC(C)CC(C)(C)C2)c1 (stereo unspecified)
inactive: dose: 100.0 mg/kg/injection, schedule: Q04DX002 (ip), vehicle: gum acacia 95 % of control | dose: 200.0 mg/kg/injection, schedule: Q04DX002 (ip), vehicle: gum acacia 98 % of control | dose: 400.0 mg/kg/injection, schedule: Q04DX002 (ip), vehicle: gum acacia 95 % of control

N#CC(C#N)=CN1CCCC1
inactive: dose: 5.0 mg/kg/injection, schedule: Q01DX009 (ip), vehicle: saline with Tween-80 89 % of control | dose: 10.0 mg/kg/injection, schedule: Q01DX009 (ip), vehicle: saline with Tween-80 91 % of control | dose: 20.0 mg/kg/injection, schedule: Q01DX009 (ip), vehicle: saline with Tween-80 93 % of control

CCCCCCCC(=O)NC1CCC(C(C)(C)C)CC1 (stereo unspecified)
inactive: dose: 100.0 mg/kg/injection, schedule: Q01DX009 (ip), vehicle: other 100 % of control | dose: 200.0 mg/kg/injection, schedule: Q01DX009 (ip), vehicle: other 97 % of control | dose: 400.0 mg/kg/injection, schedule: Q01DX009 (ip), vehicle: other 106 % of control

CCN(CC)C(=O)c1cc([N+](=O)[O-])ccc1OCc1ccccc1
inactive: dose: 25.0 mg/kg/injection, schedule: Q04DX002 (ip), vehicle: saline with Tween-80 98 % of control | dose: 50.0 mg/kg/injection, schedule: Q04DX002 (ip), vehicle: saline with Tween-80 98 % of control | dose: 100.0 mg/kg/injection, schedule: Q04DX002 (ip), vehicle: saline with Tween-80 110 % of control and 91 % of control | dose: 200.0 mg/kg/injection, schedule: Q04DX002 (ip), vehicle: saline with Tween-80 89 % of control | dose: 400.0 mg/kg/injection, schedule: Q04DX002 (ip), vehicle: saline with Tween-80 95 % of control

CC(C)(C)c1ccc(CC#N)cc1
inactive: dose: 25.0 mg/kg/injection, schedule: Q04DX003 (ip), vehicle: Klucel (hydroxypropylcellulose) (HPC) 97 % of control | dose: 50.0 mg/kg/injection, schedule: Q04DX003 (ip), vehicle: Klucel (hydroxypropylcellulose) (HPC) 94 % of control | [4] 90 % of control

c1ccc(-c2ccc(C3=NC(c4ccccc4)CC3)[nH]2)cc1 (stereo unspecified)
inactive: [5] 90 % of control | [6] 90 % of control | [7] 86 % of control

CCN(CC)CCOc1ccccc1Br
inactive: dose: 12.5 mg/kg/injection, schedule: Q04DX003 (ip), vehicle: saline 97 % of control | [8] 95 % of control | dose: 25.0 mg/kg/injection, schedule: Q04DX003 (ip), vehicle: saline 96 % of control | dose: 50.0 mg/kg/injection, schedule: Q01DX009 (ip), vehicle: saline 98 % of control | dose: 50.0 mg/kg/injection, schedule: Q04DX003 (ip), vehicle: saline 97 % of control | [9] 100 % of control

CC(=O)Nc1ccc2c(c1)OCO2
inactive: [10] 101 % of control | [1] 107 % of control | [11] 102 % of control | [2] 108 % of control | [3] 103 % of control

c1ccc2c(-c3nc4ccccc4[nH]3)cccc2c1
inactive: [10] 91 % of control | [1] 93 % of control | [11] 96 % of control | [2] 93 % of control | [12] 93 % of control | [3] 102 % of control

O=P(O)(O)OP(=O)(O)OP(=O)(O)OCC1OC(N2C=NC3C4NC=CN4CNC32)C(O)C1O (stereo unspecified)
inactive: dose: 3.13 mg/kg/injection, schedule: Q03HX024 (ip), vehicle: saline 97 % of control | dose: 6.25 mg/kg/injection, schedule: Q03HX024 (ip), vehicle: saline 93 % of control | dose: 7.5 mg/kg/injection, schedule: Q03HX024 (ip), vehicle: saline 95 % of control | dose: 15.0 mg/kg/injection, schedule: Q03HX024 (ip), vehicle: saline 93 % of control

O=C(O)/C=C/c1cccc(O)c1
inactive: [6] 98 % of control | [4] 92 % of control | [7] 102 % of control | dose: 200.0 mg/kg/injection, schedule: Q04DX003 (ip), vehicle: Klucel (hydroxypropylcellulose) (HPC) 97 % of control | [13] 97 % of control | dose: 400.0 mg/kg/injection, schedule: Q04DX003 (ip), vehicle: Klucel (hydroxypropylcellulose) (HPC) 98 % of control

COc1ccc(C(=O)C(C)C=O)c(OCc2ccccc2)c1OC (stereo unspecified)
inactive: [14] 98 % of control | [10] 96 % of control | [1] 114 % of control | [11] 93 % of control | [2] 95 % of control | [12] 97 % of control | [3] 103 % of control

CC(=O)Nc1cccc(C(=O)O)c1[N+](=O)[O-]
inactive: [6] 103 % of control | [9] 103 % of control | [7] 97 % of control | [15] 106 % of control | [13] 93 % of control | [16] 103 % of control

COc1ccccc1CC(=O)Oc1ccccc1
inactive: dose: 100.0 mg/kg/injection, schedule: Q01DX001 (ip), vehicle: saline 97 % of control | dose: 200.0 mg/kg/injection, schedule: Q01DX001 (ip), vehicle: saline 96 % of control | dose: 400.0 mg/kg/injection, schedule: Q01DX001 (ip), vehicle: saline 102 % of control

CC12OC1C(=O)c1ccccc1C2=O (stereo unspecified)
inactive: dose: 5.0 mg/kg/injection, schedule: Q04DX003 (ip), vehicle: Klucel (hydroxypropylcellulose) (HPC) 103 % of control | dose: 10.0 mg/kg/injection, schedule: Q04DX003 (ip), vehicle: Klucel (hydroxypropylcellulose) (HPC) 97 % of control

Nc1nc2c(nnn2C2CC(CO)C(O)C2O)c(=O)[nH]1 (stereo unspecified)
inactive: dose: 100.0 mg/kg/injection, schedule: Q01DX001 (ip), vehicle: other 104 % of control | dose: 200.0 mg/kg/injection, schedule: Q01DX001 (ip), vehicle: other 105 % of control | dose: 400.0 mg/kg/injection, schedule: Q01DX001 (ip), vehicle: other 109 % of control

CCN(CC)CCNC1CCCCC1
inactive: [1] 94 % of control

CCOC(=O)Sc1ncnc2nc[nH]c12
inactive: dose: 10.0 mg/kg/injection, schedule: Q01DX Z (ip), vehicle: carboxymethylcellulose (CMC) 117 % of control

CN1CCCCC1CCN1c2ccccc2Sc2ccc(Cl)cc21 (stereo unspecified)
inactive: dose: 3.12 mg/kg/injection, schedule: Q01DX009 (ip), vehicle: saline 96 % of control | dose: 6.25 mg/kg/injection, schedule: Q01DX009 (ip), vehicle: saline 97 % of control | dose: 12.5 mg/kg/injection, schedule: Q01DX009 (ip), vehicle: saline 100 % of control | [8] 97 % of control

COc1cc(OC)c(-c2nc3cc(Cl)ccc3c(=O)o2)cc1OC
inactive: dose: 87.5 mg/kg/injection, schedule: Q01DX009 (ip), vehicle: Klucel (hydroxypropylcellulose) (HPC) 114 % of control | dose: 175.0 mg/kg/injection, schedule: Q01DX009 (ip), vehicle: Klucel (hydroxypropylcellulose) (HPC) 98 % of control | dose: 350.0 mg/kg/injection, schedule: Q01DX009 (ip), vehicle: Klucel (hydroxypropylcellulose) (HPC) 93 % of control

N#CSC1CSC(SC2=NC(SC#N)CS2)=N1 (stereo unspecified)
inactive: [6] 94 % of control | [9] 98 % of control | [7] 104 % of control | [15] 92 % of control

C=CC[n+]1c(C)ccc2ccccc21
inactive: dose: 25.0 mg/kg/injection, schedule: Q01DX009 (ip), vehicle: saline with Tween-80 100 % of control | [14] 115 % of control | dose: 100.0 mg/kg/injection, schedule: Q01DX001 (ip), vehicle: saline with Tween-80 114 % of control

COc1cc(OC(=O)Nc2ccc([N+](=O)[O-])cc2OC)ccc1C=O
inactive: dose: 25.0 mg/kg/injection, schedule: Q01DX009 (ip), vehicle: Klucel (hydroxypropylcellulose) (HPC) 92 % of control | [5] 92 % of control | [6] 105 % of control and 88 % of control

CC(=O)Nc1ccc2c3c(ccc([N+](=O)[O-])c13)CC2
inactive: dose: 100.0 mg/kg/injection, schedule: Q01DX009 (ip), vehicle: saline 90 % of control | [9] 108 % of control | dose: 200.0 mg/kg/injection, schedule: Q01DX009 (ip), vehicle: saline 93 % of control | [15] 110 % of control | dose: 400.0 mg/kg/injection, schedule: Q01DX009 (ip), vehicle: saline 108 % of control | [16] 110 % of control
